According to patent publication US20110039763A1, “TARGETED ANTIMICROBIAL MOIETIES” (C3 JIAN, INC., priority 2009, published 2011):
Entries after “also recorded” stand apart in the source; their conditions may differ.

Each substance was assayed on microorganisms (assay: Targeting peptide binding to target microorganisms (Tables 3, 10, 12)). Conditions: peptide binding in aqueous buffers that varied with peptide solubility; preferably 1x PBS.
Source text: In certain embodiments, the targeting moiety comprises one or more targeting peptides that bind particular bacteria, fungi, and/or yeasts, and/or algae, and/or viruses and/or that bind particular groups of bacteria, and/or groups of fungi, and/or groups of yeasts, and/or groups of algae.
In certain embodiments the targeting peptides include peptides comprising or consisting of one or more of the amino acid sequences shown in Table 3 (SEQ ID NOs:13-1566). In various embodiments the peptides include peptides comprising or consisting of the retro, inverso, retro-inverso, and/or beta form of one or more of the amino acid sequences shown in Table 3. Also contemplated are circular permutations of these sequences as well as peptides comprising or consisting of the retro, inverso, retro-inverso, and/or beta form of such circular permutations.
In certain embodiments the targeting peptide can comprise one or more domains capable of binding, specifically binding, or preferentially binding to a microorganism, e.g., a target microbial organism (see, e.g., Table 3). In certain embodiment, the targeting peptide be identified via screening peptide libraries. For example, a phage display peptide library can be screened against a target microbial organism or a desired antigen or epitope thereof. Any peptide identified through such screening can be used as a targeting peptide for the target microbial organism.

Substance	Target(s) (microorganism bound by the targeting peptide)
1T-68 (GGTKEIVYQRG; Peptide with targeting and/or antimicrobial activity)	S. mutans; also recorded: S. aureus; also recorded: C. jeikeium; also recorded: C. xerosis; also recorded: C. striatum; also recorded: P. aeruginosa
1T-69 (ILSQEADRKKLF; Peptide with targeting and/or antimicrobial activity)	S. mutans; also recorded: P. aeruginosa
1T-70 (NRQAQGERAHGEQQG; Peptide with targeting and/or antimicrobial activity)	S. aureus; also recorded: C. jeikeium; also recorded: P. aeruginosa
1T-71 (KIDTNQWPPNKEG; Peptide with targeting and/or antimicrobial activity)	P. aeruginosa
1T-72 (EPTDGVACKER; Peptide with targeting and/or antimicrobial activity)	P. aeruginosa
1T-73 (GWWEELLHETILSKFKITKALELPIQL; Peptide with targeting and/or antimicrobial activity)	S. pneumoniae
1T-74 (DIDWGRKISCAAGVAYGAIDGCATTV; Peptide with targeting and/or antimicrobial activity)	S. pneumoniae
1T-75 (GVARGLQLGIKTRTQWGAATGAA; Peptide with targeting and/or antimicrobial activity)	S. pneumoniae
1T-76 (EMRLSKFFRDFILWRKK; Peptide with targeting and/or antimicrobial activity)	S. pneumoniae
1T-77 (EMRISRIILDFLFLRKK; Peptide with targeting and/or antimicrobial activity)	S. pneumoniae
1T-78 (FFKTIFVLILGALGVAAGLYIEKNYIDK; Peptide with targeting and/or antimicrobial activity)	S. pneumoniae
1T-79 (FGTPWSITNFWKKNFNDRPDFDSDRRRY; Peptide with targeting and/or antimicrobial activity)	S. pneumoniae
1T-80 (GGNLGPGFGVIIP; Peptide with targeting and/or antimicrobial activity)	S. pneumoniae
1T-81 (AIATGLDIVDGKFDGYLWA; Peptide with targeting and/or antimicrobial activity)	S. pneumoniae
1T-82 (FGVGVGIALFMAGYAIGKDLRKKFGKSC; Peptide with targeting and/or antimicrobial activity)	S. pneumoniae
1T-83 (QKPRKNETFIGYIQRYDIDGNGYQSLPCPQN; Peptide with targeting and/or antimicrobial activity)	S. pneumoniae
1T-84 (FRKKRYGLSILLWLNAFTNLVNSIHAFYMTLF; Peptide with targeting and/or antimicrobial activity)	S. pneumoniae
1T-86 (HRKNPVLGVGRRHRAHNVA; Peptide with targeting and/or antimicrobial activity)	S. mitis; also recorded: S. oralis; also recorded: S. salivarious
1T-87 (EAVGQDLVDAHHP; Peptide with targeting and/or antimicrobial activity)	S. mitis; also recorded: S. mutans; also recorded: S. oralis
1T-89 (HEDDKRRGMSVEVLGFEVVQHEE; Peptide with targeting and/or antimicrobial activity)	S. mitis; also recorded: S. mutans

Substance	Target(s) (microorganism bound by the targeting peptide)
1T-90 (RNVIGQVL; Peptide with targeting and/or antimicrobial activity)	S. gordonii; also recorded: S. mitis; also recorded: S. mutans; also recorded: S. oralis; also recorded: S. sanguinis
1T-91 (TSVRPGAAGAAVPAGAAGAAGAGWRWP; Peptide with targeting and/or antimicrobial activity)	S. mitis; also recorded: S. mutans; also recorded: S. oralis; also recorded: S. sanguinis
1T-92 (GQDEGQRRAGVGEGQGVDG; Peptide with targeting and/or antimicrobial activity)	S. mitis; also recorded: S. mutans
1T-93 (AMRSVNQA; Peptide with targeting and/or antimicrobial activity)	S. epidermidis; also recorded: S. gordonii; also recorded: S. mitis; also recorded: S. mutans; also recorded: S. oralis; also recorded: S. sanguinis
1T-94 (DQVAHSGDMLVQARRRDS; Peptide with targeting and/or antimicrobial activity)	S. mitis; also recorded: S. mutans; also recorded: S. oralis
1T-95 (GHLLRVGGRVGGVGGVAGACAQPFGGQ; Peptide with targeting and/or antimicrobial activity)	S. gordonii; also recorded: S. mitis; also recorded: S. mutans; also recorded: S. oralis; also recorded: S. sanguinis
1T-96 (VAGACAQPFGGQ; Peptide with targeting and/or antimicrobial activity)	S. gordonii; also recorded: S. mitis; also recorded: S. mutans; also recorded: S. oralis; also recorded: S. sanguinis
1T-99 (MKAWLGQ; Peptide with targeting and/or antimicrobial activity)	S. gordonii; also recorded: S. mitis; also recorded: S. mutans; also recorded: S. oralis; also recorded: S. sanguinis
1T-100 (LDPLEPRIAPPGDRSHQGAPACHRDPLRGRSARDAER; Peptide with targeting and/or antimicrobial activity)	S. gordonii; also recorded: S. mitis; also recorded: S. mutans
1T-101 (RLRVGRATDLPLTSFAVGVVRNLPDAPAH; Peptide with targeting and/or antimicrobial activity)	A. naeslundii; also recorded: P. gingivalis; also recorded: S. epidermidis; also recorded: S. gordonii; also recorded: S. mitis; also recorded: S. mutans; also recorded: S. oralis; also recorded: S. sanguinis
1T-104 (RAVAAHLQGRHHGHQVRRQRHGQR; Peptide with targeting and/or antimicrobial activity)	S. mitis
1T-105 (GEGLPPPVLHLPPPRMSGR; Peptide with targeting and/or antimicrobial activity)	S. epidermidis; also recorded: S. gordonii; also recorded: S. mitis; also recorded: S. mutans; also recorded: S. oralis
1T-106 (DALRRSRSQGRRHR; Peptide with targeting and/or antimicrobial activity)	S. gordonii; also recorded: S. mitis; also recorded: S. mutans; also recorded: S. oralis; also recorded: S. salivarious
1T-107 (SPVPRFTAVGGVSRGSP; Peptide with targeting and/or antimicrobial activity)	A. naeslundii; also recorded: S. epidermidis; also recorded: S. gordonii; also recorded: S. mitis; also recorded: S. mutans; also recorded: S. oralis; also recorded: S. salivarious; also recorded: S. sanguinis
1T-108 (WGPLGPERPLW; Peptide with targeting and/or antimicrobial activity)	S. gordonii; also recorded: S. mitis; also recorded: S. mutans; also recorded: S. oralis; also recorded: S. salivarious; also recorded: S. sanguinis
1T-109 (VTTNVRQGAGS; Peptide with targeting and/or antimicrobial activity)	A. naeslundii; also recorded: S. epidermidis; also recorded: S. gordonii; also recorded: S. mitis; also recorded: S. mutans; also recorded: S. oralis; also recorded: S. salivarious; also recorded: S. sanguinis
1T-110 (LAAKTAVCVGRAFM; Peptide with targeting and/or antimicrobial activity)	A. naeslundii; also recorded: P. gingivalis; also recorded: S. epidermidis; also recorded: S. gordonii; also recorded: S. mitis; also recorded: S. mutans; also recorded: S. oralis; also recorded: S. sanguinis
1T-112 (SDNDGKLILGTSQ; Peptide with targeting and/or antimicrobial activity)	S. gordonii
1T-113 (HGAHQRTGQRLHHHRGRTVSGCRQNPVAGVDPDEHR; Peptide with targeting and/or antimicrobial activity)	S. mitis
